Measured values reported in patent US9238602B1, “Process for the preparation of cis-2,2,4,4-tetramethylcyclobutane-1,3-diol” (Eastman Chemical Company, priority 2014, dated 2016).

Assay: cis/trans 2,2,4,4-tetramethylcyclobutane-1,3-diol solubility ratio (cis isomer solubility limit divided by trans isomer solubility limit)
Type: physicochemical
Method: The definition of cis/trans 2,2,4,4-tetramethylcyclobutane-1,3-diol solubility ratio is also known to one of ordinary skill in the art; in one embodiment, the cis/trans 2,2,4,4-tetramethylcyclobutane-1,3-diol solubility ratio can be defined as the ratio of the cis isomer solubility limit divided by the trans isomer solubility limit at a given temperature for a given solvent or solvents. For example, the cis/trans solubility ratio in water at 80° C. is about 1.0. For MIBC, the cis/trans solubility ratio at 80° C. is about 0.74.

cis/trans solubility ratio (in MIBC (methyl isobutyl carbinol) at 80° C.): about 0.74 | cis/trans solubility ratio (in water at 80° C.): about 1.0
SMILES: CC1(C)C(O)C(C)(C)C1O (centres unmarked) [2,2,4,4-tetramethylcyclobutane-1,3-diol]
